# Measurements as given in PMC11031313 (Cell chemical biology, 2024).
# Assays:
# SIV Nef mac239 = SIV Nef mac239 (Simian immunodeficiency virus, UniProt Q5QGG3); experiment: SPR binding to SIV Nef mac239
# [1] = target: M-group HIV-1 Nef variants; experiment: SPR binding to M-group HIV-1 Nef variants; details: HIV-1 Nef proteins
# [2] = target: Nef (NL4-3 variant) and CRBN thalidomide-binding domain (UniProt P03406+Q96SW2, A33V/T15A/T51N/V11I); experiment: PROTAC-mediated ternary complex formation in vitro; details: 25 μM of each protein, 5-, 10- or 20-fold molar excess of PROTAC
# HIV-1NL4-3 [3] = experiment: HIV-1 replication in donor PBMCs; format: cell-based; details: 1 μM, 4 days
# uninfected PBMCs = experiment: Viability of uninfected PBMCs; format: cell-based, human; details: 1 μM, 4 days
# HIV-1 Nef (SF2 variant) = HIV-1 Nef (SF2 variant) (Human immunodeficiency virus type 1 group M subtype B, UniProt P03407); format: cell-based; details: 293T cells, PROTAC 10 μM, 24 h
# HIV-1NL4-3 [4] = experiment: HIV-1 infectivity assay in TZM-bl reporter cells; format: cell-based; details: Human immunodeficiency virus 1, TZM-bl, 48 h, read-out: IC50, HIV-1 infectivity
# TZM-bl cells = experiment: Viability of uninfected TZM-bl cells; format: cell-based, human
# [5] = target: HIV-1 Nef (NL4-3 variant) (Human immunodeficiency virus type 1, UniProt Q90VU7); experiment: SPR binding to HIV-1 Nef; details: for binding kinetics with Nef (in words): SPR, 90 s association, 180 s dissociation
# Nef-eGFP fusion protein = Nef-eGFP fusion protein (UniProt P03406+Q96SW2); experiment: Nef-eGFP protein loss in CEM/Nef-eGFP cells by flow cytometry; format: cell-based, HIV-1; details: 3 μM, 24 h
# IKZF1 (Ikaros) = IKZF1 (Ikaros) (Homo sapiens, UniProt Q13422); experiment: IKZF1 protein level in CEM/Nef-eGFP T cells; format: cell-based; details: CEM/Nef-eGFP cells after Dox induction
# [6] = test system: Nef-mediated CD4 downregulation; experiment: Rescue of cell-surface CD4 in Dox-induced CEM/Nef-eGFP T cells; format: cell-based, human; details: 3 μM, 24 h
# [7] = test system: Nef-mediated MHC-I downregulation; experiment: Rescue of cell-surface MHC-I in Dox-induced CEM/Nef-eGFP T cells; format: cell-based, human; details: 3 μM, 24 h
# [8] = target: thalidomide-binding domain of CRBN (Homo sapiens, UniProt Q96SW2); experiment: SPR binding to CRBN thalidomide-binding domain; details: 90 s association, 180 s dissociation
# Sequence of thalidomide-binding domain of CRBN (Q96SW2 317-425): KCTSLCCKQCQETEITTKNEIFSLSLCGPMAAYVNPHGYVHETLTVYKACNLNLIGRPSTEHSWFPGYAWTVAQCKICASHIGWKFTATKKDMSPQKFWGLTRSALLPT
# Sequence of Nef (NL4-3 variant) and CRBN thalidomide-binding domain (Q96SW2 317-425, other chains not shown): as the sequence (Q96SW2 317-425) above
# Sequence of Nef-eGFP fusion protein (Q16531 whole entry, other chains not shown, the tested form may be a part): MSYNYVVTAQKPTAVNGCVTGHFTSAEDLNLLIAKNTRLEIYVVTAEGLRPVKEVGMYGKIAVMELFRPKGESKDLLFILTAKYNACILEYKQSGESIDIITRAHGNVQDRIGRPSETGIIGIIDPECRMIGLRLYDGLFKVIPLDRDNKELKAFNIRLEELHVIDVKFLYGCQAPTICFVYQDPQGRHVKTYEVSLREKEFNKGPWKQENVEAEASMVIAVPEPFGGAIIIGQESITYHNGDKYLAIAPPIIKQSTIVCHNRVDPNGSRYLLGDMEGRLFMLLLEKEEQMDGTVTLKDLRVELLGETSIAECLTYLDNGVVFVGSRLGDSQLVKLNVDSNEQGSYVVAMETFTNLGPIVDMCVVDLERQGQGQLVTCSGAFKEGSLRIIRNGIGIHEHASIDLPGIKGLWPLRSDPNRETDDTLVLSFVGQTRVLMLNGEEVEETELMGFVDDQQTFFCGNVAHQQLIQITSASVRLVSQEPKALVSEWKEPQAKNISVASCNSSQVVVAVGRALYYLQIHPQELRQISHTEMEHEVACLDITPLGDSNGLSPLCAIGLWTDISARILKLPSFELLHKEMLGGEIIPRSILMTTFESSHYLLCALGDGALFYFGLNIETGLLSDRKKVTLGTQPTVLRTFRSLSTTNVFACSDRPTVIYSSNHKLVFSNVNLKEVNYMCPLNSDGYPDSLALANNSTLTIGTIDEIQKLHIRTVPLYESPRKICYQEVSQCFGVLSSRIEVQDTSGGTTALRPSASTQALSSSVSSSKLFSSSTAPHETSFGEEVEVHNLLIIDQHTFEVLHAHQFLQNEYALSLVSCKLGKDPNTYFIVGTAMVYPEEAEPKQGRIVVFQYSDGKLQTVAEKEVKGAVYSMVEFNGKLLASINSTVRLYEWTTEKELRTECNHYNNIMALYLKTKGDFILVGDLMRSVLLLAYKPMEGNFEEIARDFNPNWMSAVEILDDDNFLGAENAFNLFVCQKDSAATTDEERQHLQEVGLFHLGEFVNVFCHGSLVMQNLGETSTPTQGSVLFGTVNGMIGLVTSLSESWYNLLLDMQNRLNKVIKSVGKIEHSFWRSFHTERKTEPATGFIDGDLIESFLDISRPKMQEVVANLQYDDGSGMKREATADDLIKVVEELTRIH
# Sequence of Nef-eGFP fusion protein (Q96SW2 whole entry, other chains not shown, the tested form may be a part): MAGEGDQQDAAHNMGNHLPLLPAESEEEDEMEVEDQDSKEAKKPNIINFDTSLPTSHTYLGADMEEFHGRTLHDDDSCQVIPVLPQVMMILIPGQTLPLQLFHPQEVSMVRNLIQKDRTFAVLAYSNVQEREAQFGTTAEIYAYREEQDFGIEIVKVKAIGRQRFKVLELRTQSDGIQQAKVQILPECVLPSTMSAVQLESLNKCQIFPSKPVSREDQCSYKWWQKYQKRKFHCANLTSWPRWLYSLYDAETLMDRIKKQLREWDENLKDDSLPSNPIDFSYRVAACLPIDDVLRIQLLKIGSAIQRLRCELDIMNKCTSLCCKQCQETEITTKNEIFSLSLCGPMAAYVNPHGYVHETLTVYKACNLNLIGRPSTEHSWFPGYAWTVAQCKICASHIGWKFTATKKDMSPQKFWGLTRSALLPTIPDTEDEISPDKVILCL
# Sequence of IKZF1 (Ikaros) (Q13422 whole entry): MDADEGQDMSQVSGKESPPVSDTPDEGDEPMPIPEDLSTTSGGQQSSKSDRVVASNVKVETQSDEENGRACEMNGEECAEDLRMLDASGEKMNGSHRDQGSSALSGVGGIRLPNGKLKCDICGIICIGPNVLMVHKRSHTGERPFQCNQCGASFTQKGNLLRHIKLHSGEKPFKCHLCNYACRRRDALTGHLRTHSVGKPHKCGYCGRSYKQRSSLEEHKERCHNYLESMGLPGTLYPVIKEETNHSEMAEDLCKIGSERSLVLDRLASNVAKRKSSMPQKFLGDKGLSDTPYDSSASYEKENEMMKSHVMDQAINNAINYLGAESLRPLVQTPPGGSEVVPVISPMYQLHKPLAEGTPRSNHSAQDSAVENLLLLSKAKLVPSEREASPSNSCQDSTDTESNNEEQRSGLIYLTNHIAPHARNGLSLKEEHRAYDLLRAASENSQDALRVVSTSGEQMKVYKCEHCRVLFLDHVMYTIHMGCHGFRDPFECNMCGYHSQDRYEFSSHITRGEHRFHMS
SMILES,Kd (SIV Nef mac239) [nM],Kd [1] [nM],ternary complex formation (in words) [2],induction of Nef ubiquitylation (in words) (HIV-1 Nef (SF2 variant)),binding kinetics with Nef (in words) [5],Nef-eGFP protein loss / Nef degradation (in words) (Nef-eGFP fusion protein),cell-surface CD4 rescue (in words) [6],cell-surface MHC-I rescue (in words) [7],other results
"O=C1CCC(N2Cc3c(OCC(=O)N4CCC(c5nn(-c6nc7cc(Cl)ccc7[nH]6)c(O)c5CCc5ccc(F)cc5)CC4)cccc3C2=O)C(=O)N1 (centres unmarked) [FC-14367, 3-[4-(2-{4-[1-(5-chloro-1H-1,3-benzodiazol-2-yl)-4-[2-(4-fluorophenyl)ethyl]-5-hydroxy-1H-pyrazol-3-yl]piperidin-1-yl}-2-oxoethoxy)-1-oxo-2,3-dihydro-1H-isoindol-2-yl]piperidine-2,6-dione]",< 1000,< 1000,,,,,,,
"O=C(COCCOCCOCCCc1ccc(-c2nn(-c3nc4cc(Cl)ccc4[nH]3)c(O)c2CCc2ccc(F)cc2)cc1)NCCNc1cccc2c1C(=O)N(C1CCC(=O)NC1=O)C2=O (centres unmarked) [FC-13818, 2-{2-[2-(3-{4-[1-(5-chloro-1H-1,3-benzodiazol-2-yl)-4-[2-(4-fluorophenyl)ethyl]-5-hydroxy-1H-pyrazol-3-yl]phenyl}propoxy)ethoxy]ethoxy}-N-(2-{[2-(2,6-dioxopiperidin-3-yl)-1,3-dioxo-2,3-dihydro-1H-isoindol-4-yl]amino}ethyl)acetamide]",,,induce ternary complexes of Nef with CRBN,,,,,,HIV-1 replication (in words) (HIV-1NL4-3 [3]): reduced HIV-1 replication below the level of the ΔNef mutant; reduction of viability (uninfected PBMCs): 20%
"O=C(COc1ccc(CCc2c(-c3ccc(C(F)(F)F)cc3)nn(-c3nc4cc(Cl)ccc4[nH]3)c2O)cc1)NCCNc1cccc2c1C(=O)N(C1CCC(=O)NC1=O)C2=O (centres unmarked) [FC-14369, 2-(4-{2-[1-(5-chloro-1H-1,3-benzodiazol-2-yl)-5-hydroxy-3-[4-(trifluoromethyl)phenyl]-1H-pyrazol-4-yl]ethyl}phenoxy)-N-(2-{[2-(2,6-dioxopiperidin-3-yl)-1,3-dioxo-2,3-dihydro-1H-isoindol-4-yl]amino}ethyl)acetamide]",< 1000,< 1000,,active,delayed dissociation,parallel loss in Nef expression,,,IC50 (HIV-1NL4-3 [4]): ~250 nM; cytotoxicity (in words) (TZM-bl cells): without cytotoxicity; Kd [5]: 6.5 nM; effect on the protein level of IKZF1 (IKZF1 (Ikaros)): reduced the expression of IKZF1
"O=C(COCCOc1ccc(CCc2c(-c3ccc(C(F)(F)F)cc3)nn(-c3nc4cc(Cl)ccc4[nH]3)c2O)cc1)NCCNc1cccc2c1C(=O)N(C1CCC(=O)NC1=O)C2=O (centres unmarked) [FC-13182, 2-[2-(4-{2-[1-(5-chloro-1H-1,3-benzodiazol-2-yl)-5-hydroxy-3-[4-(trifluoromethyl)phenyl]-1H-pyrazol-4-yl]ethyl}phenoxy)ethoxy]-N-(2-{[2-(2,6-dioxopiperidin-3-yl)-1,3-dioxo-2,3-dihydro-1H-isoindol-4-yl]amino}ethyl)acetamide]",,,,,,effectively induced Nef degradation,restored CD4 and MHC-I expression,restored CD4 and MHC-I expression,
"CN(CCNC(=O)COCCOc1ccc(CCc2c(-c3ccc(C(F)(F)F)cc3)nn(-c3nc4cc(Cl)ccc4[nH]3)c2O)cc1)c1cccc2c1C(=O)N(C1CCC(=O)NC1=O)C2=O (centres unmarked) [FC-13887, 2-[2-(4-{2-[1-(5-chloro-1H-1,3-benzodiazol-2-yl)-5-hydroxy-3-[4-(trifluoromethyl)phenyl]-1H-pyrazol-4-yl]ethyl}phenoxy)ethoxy]-N-(2-{[2-(2,6-dioxopiperidin-3-yl)-1,3-dioxo-2,3-dihydro-1H-isoindol-4-yl](methyl)amino}ethyl)acetamide]",,,induce ternary complexes of Nef with CRBN,active,,,,,z-score of normalized BRET ratio (Nef ubiquitylation) (HIV-1 Nef (SF2 variant)): 1.3
"O=C(COc1cccc2c1CN(C1CCC(=O)NC1=O)C2=O)NCCOCCOCCOCc1ccc(-c2nn(-c3nc4cc(Cl)ccc4[nH]3)c(O)c2CCc2ccc(F)cc2)cc1 (centres unmarked) [FC-12988, N-(2-{2-[2-({4-[1-(5-chloro-1H-1,3-benzodiazol-2-yl)-4-[2-(4-fluorophenyl)ethyl]-5-hydroxy-1H-pyrazol-3-yl]phenyl}methoxy)ethoxy]ethoxy}ethyl)-2-{[2-(2,6-dioxopiperidin-3-yl)-1-oxo-2,3-dihydro-1H-isoindol-4-yl]oxy}acetamide]",,,induce ternary complexes of Nef with CRBN,,more rapid association and release compared to FC-13182,effectively induced Nef degradation,restored CD4 and MHC-I expression,restored CD4 and MHC-I expression,binding kinetics with CRBN thalidomide-binding domain (in words) [8]: associated more slowly than FC-13182 and showed a comparatively slow dissociation phase
